Experimental data reported in PMC8318231, “Rate-of-Kill (RoK) assays to triage large compound sets for Chagas disease drug discovery: Application to GSK Chagas Box” (PLoS Neglected Tropical Diseases, 2021).

Legend:
TcCYP51 = details: formerly reported; cited from earlier work
[1] = system: T. cruzi intracellular amastigotes in H9c2 cells; experiment: Rate-of-Kill (RoK) high-content imaging assay, amastigotes per cell (AM/CELL) and curve descriptors; type: cell-based, Trypanosoma cruzi; parameters: key to ME_24h / ME_48h / ME_72h: % reduction in parasite burden (cidal response); t50pct_MCC50 / t50pct_Cmax: unit not given here; details: for ME_24h: 24h; for ME_48h: 48h; for ME_72h: 72h; for t50%_Cmax / tlag_Cmax / t50pct_Cmax: at Cmax; for ME_24h (%): maximum effect at 24 h; for ME_24h (%) / ME_48h (%) / ME_72h (%): RoK assay; for ME_48h (%): maximum effect at 48 h; for ME_72h (%): maximum effect at 72 h; for ME 24h (maximum effect at 24 hours, intracellular amastigotes): maximum percentage of parasite burden reduction reached by any concentration
Protocol: For this high-content intracellular imaging assay, H9c2 cells were seeded in 225 cm^2 T- FLASK in DMEM with 10% FBS for 4 h to allow attachment. T. cruzi trypomastigotes, collected at days 5 to 8 after infection from LLC-MK2 parasite infected cultures, were allowed to swim out for 4 h at 37°C from a centrifuged pellet (1,600 x g / 10 min). Trypomastigotes were then collected and counted in a CASY Cell Counter using the 60 μm capillary. Trypomastigotes, in supplemented DMEM, were added to H9c2 cultures in a multiplicity of infection (MOI) of 8 and incubated for 18 h. Cells were washed once with PBS before incubation of the infected H9c2 monolayer with trypsin (Life-Technologies) to detach cells from the flask. Cells were counted in a CASY Cell Counter, using the 150 μm capillary, and their density set at 5 x 10^4 cells/mL in supplemented DMEM. Infected H9c2 were dispensed into 384-well plates at 50 μL per well using a Multidrop Combi dispenser. Control wells used to determine a 100% parasitic growth (full 6th column of each plate) were left untreated, whereas not infected cells were added in the control wells used as 0% parasite growth (or 100% parasite growth inhibition; full 18th column of each plate). The four plates corresponding to each RoK assay were predispensed for the same mother plate. […] Cultures were then fixed and stained with 50 μL per well of a PBS solution containing 4% formaldehyde and 2 μM DRAQ5 DNA dye (BioStatus, UK). Then plates were read in a PerkinElmer Opera Phenix using a 20x objective, 3 fields per well. DRAQ5 signal was detected using 640 nm excitation laser and a 690/50 nm emission detection filter. Automated image analysis was performed with a script developed on Acapella High Content Imaging and Analysis Software (PerkinElmer). Two outputs were provided for each sample well: (1) number of host cells nuclei to determine drug-related cytotoxicity (aka H9c2) and (2) number of amastigotes per cell as infection level measurement (aka AM/CELL). Each output is plotted as a time course for each compound at every concentration. This assay was adapted from Alonso-Padilla et al. and Peña et al..
To identify and classify the different compounds, the number of amastigotes per cell (AM/CELL) raw data obtained in rate of kill assay are normalised using the average of C1 (infected cells) at time 4 hours as 0% effect and the average of C2 (non-infected cells) for each time as 100% effect, according to the following Eq 1: %CIDALRESPONSE=100*[Avg_C14h-RawData]/[Avg_C14h-Avg_C2] (1)
• ME (Maximum Effect) is the maximum percentage of parasite burden reduction reached by any compound concentration. Compounds that decrease the initial parasite load will show a positive value of ME, whereas compounds that allow the progression of infection will render a negative ME value. […] It is calculated for the MCC50 (t50%_MCC50) and for the maximum concentration (t50%_Cmax). […] The value of this parameter is not either interpolated or extrapolated, and it refers to the first experimental time-course point at which a 50% of effect is reached or exceeded. • tlag defines the time elapsed for one particular concentration to reduce parasite burden between two consecutive points at any moment of the time course. It is calculated for the MCC50 (tlag_MCC50) and for the maximum concentration (tlag_Cmax). The value of this parameter is not either interpolated or extrapolated, and it refers to the first experimental time-course point of a positive slope in the normalised plot (i.e. %Cidal_Response). • Cmin_Tox (Minimal CytoToxic Concentration) is the lowest compound concentration that is reducing the number of host mammalian cells below 50% of initial cell density. Cytotoxic compounds may mislead a bona fide antiparasitic action.

Compound | CYP51 pIC50 (TcCYP51) | ME_24h ([1]; figure 5) | ME_48h ([1]; figure 5) | ME_72h ([1]; figure 5) | MCCE ([1]; RoK curve descriptor) [µM] | AM/CELL NORM ([1]; Time 4, sheet figure 4 A) | AM/CELL NORM ([1]; Time 24, sheet figure 4 A) | AM/CELL NORM ([1]; Time 48, sheet figure 4 A) | AM/CELL NORM ([1]; Time 72, sheet figure 4 A) | tlag_Cmax [1] [h] | t50pct_Cmax ([1]; figure 5) | tlag_Cmax ([1]; figure 5) | t50%_MCC50 ([1]; at MCC50) [h] | t50pct_MCC50 ([1]; at MCC50, figure 5) | tlag_MCC50 ([1]; at MCC50, figure 5) | MCCE ([1]; figure 5) | ME_24h (%) [1] [%] | ME_48h (%) [1] [%] | ME_72h (%) [1] [%] | ME 24h (maximum effect at 24 hours, intracellular amastigotes) [1] [%] | further results
CN1CCCN(C(=O)c2ccc(N3CCCC3)cc2Cl)CC1 [TCMDC-143127] | < 4 | -63.1294 | 41.4777 | 77.6777 | 1.9 | 3.238 | -70.995 | 17.9659 | 59.5367 | 24.0 | 67.2 | 24 | 72.0 | 72 | 24 | 1.852 | -63.1 | 41.5 | 77.7 | -38.4049 | MCC50 ([1]; RoK curve descriptor): 7.0 µM; t50%_Cmax [1]: 67.2 h; tlag_MCC50 ([1]; at MCC50): 24.0 h; MCC50 ([1]; figure 5, in µM): 7.037
COc1ccc(C2CC(c3ccccc3Cl)=NN2C(=O)CNC(=O)C2CCC2)cc1 (stereo not shown) [TCMDC-143130] | 4.3 | 26.5695 | 65.3197 | 85.0018 | 1.9 | 21.8567 | 26.5695 | 65.3197 | 85.0018 | 4.0 | 48 | 4 | 72.0 | 72 | 4 | 1.852 | 26.6 | 65.3 | 85.0 | 26.5695 | MCC50 ([1]; RoK curve descriptor): 5.6 µM; t50%_Cmax [1]: 48.0 h; tlag_MCC50 ([1]; at MCC50): 4.0 h; MCC50 ([1]; figure 5, in µM): 5.556
CCC(=O)Nc1ccc(-c2nc3ccc(Cl)cc3[nH]2)cc1 [TCMDC-143135] | < 4 | 52.1566 | 46.9478 | 38.7036 | 5.6 | -141.214 | -21.5946 | -76.5792 | -95.9437 | 4.0 | 72 | 4 | 24.0 | 24 | 4 | 5.556 | 52.2 | 47.0 | 38.7 | 52.1566 | tlag_MCC50 ([1]; at MCC50): 4.0 h
COc1ccc(-c2nc3ncccc3o2)cc1NC(=O)c1cccs1 [TCMDC-143137] | < 4 | 22.8714 | 76.8526 | 102.262 | 5.6 | -5.518 | 19.5521 | 76.8526 | 68.9196 | 4.0 | 48 | 4 | 48.0 | 48 | 4 | 5.556 | 22.9 | 76.9 | 102.3 | 22.8714 | cidality in the RoK assay (in words) [1]: not signs of cidality at 24 hours; ME / cidal effect at 72 hours ([1]; 72 hours): 100%; MCC50 ([1]; RoK curve descriptor): 16.7 µM; t50%_Cmax [1]: 48.0 h; tlag_MCC50 ([1]; at MCC50): 4.0 h; MCC50 ([1]; figure 5, in µM): 16.6667
Cc1nnnn1-c1cccc(C(=O)N2CCC[C@@]3(C)c4ncncc4CCC23)c1 (stereo partly shown) [TCMDC-143148] | 4.6 | -108.08 | -0.7839 | 73.626 | 0.6 | 4.786 | -133.046 | -35.529 | 70.8755 | 24.0 | 72 | 24 | 72.0 | 72 | 24 | 0.6173 | -108.1 | -0.8 | 73.6 | -108.08 | MCC50 ([1]; RoK curve descriptor): 1.9 µM; t50%_Cmax [1]: 72.0 h; tlag_MCC50 ([1]; at MCC50): 24.0 h; MCC50 ([1]; figure 5, in µM): 1.852
Cc1c(C#N)c([N+](=O)[O-])nn1Cc1cccc(Cl)c1Cl [TCMDC-143152] | < 4 | 56.9761 | 166.798 | 160.217 | 0.6 | 5.197 | 56.9761 | 166.798 | 160.217 | 4.0 | 24 | 4 | 48.0 | 48 | 4 | 0.6173 | 57.0 | 166.8 | 160.2 | 56.9761 | MCC50 ([1]; RoK curve descriptor): 1.9 µM; t50%_Cmax [1]: 24.0 h; tlag_MCC50 ([1]; at MCC50): 4.0 h; MCC50 ([1]; figure 5, in µM): 1.852
CCOc1ccc(NC(=O)C=Cc2ccc(CC)o2)cc1 [TCMDC-143160] | < 4 | -214.627 | -667.694 | -988.393 | 16.7 | – | – | – | – | 72.0 | 72 | 72 | – | 72 | 72 | 16.6667 | -214.6 | -667.7 | -988.4 | 0.6973 | AM/CELL NORM ([1]; Time 4, figure 4 A): 1.332; AM/CELL NORM ([1]; Time 24, figure 4 A): -214.627; AM/CELL NORM ([1]; Time 48, figure 4 A): -667.694; AM/CELL NORM ([1]; Time 72, figure 4 A): -988.393; MCC50 ([1]; figure 5): 50 µM
COc1ccc(NS(=O)(=O)c2cc(NC(=O)c3ccc([N+](=O)[O-])s3)ccc2OC)cc1 [TCMDC-143163] | 6 | 71.4836 | 99.4358 | 93.6846 | 0.2 | 10.6053 | 69.9764 | 96.1683 | 85.8906 | 4.0 | 24 | 4 | 48.0 | 48 | 24 | 0.2058 | 71.5 | 99.4 | 93.7 | 71.4836 | MCC50 ([1]; RoK curve descriptor): 0.2 µM; t50%_Cmax [1]: 24.0 h; tlag_MCC50 ([1]; at MCC50): 24.0 h; MCC50 ([1]; figure 5, in µM): 0.2058
